Data: patent US11312705B2, “Heteroaryl[4,3-C]pyrimidine-5-amine derivative, preparation method therefor, and medical uses thereof” (Jiangsu Hengrui Medicine Co., Ltd., priority 2017, dated 2022)

What was measured:
[1] = molecular target: adenosine A2b receptor (A2bR) (Homo sapiens (Human), UniProt P29275); assay: Inhibition of adenosine A2b receptor cAMP signaling pathway (HTRF cAMP, CHO-K1/A2bR cells); format: cell-based; conditions: Table 3; for IC50: CHO-K1/A2bR cells, ethyl carbazole 1 μM, cAMP HTRF; for IC50 ratio (A2bR/A2aR): selectivity A2bR over A2aR
From the text: (§1) Test Example 1. Determination of the inhibition activity of the compounds of the present invention on the adenosine A2a receptor (A2aR) cAMP signaling pathway, the adenosine A2b receptor (A2bR) cAMP signaling pathway, the adenosine A1 receptor (A1R) cAMP signaling pathway and the adenosine A3 receptor (A3R) cAMP signaling pathway.
(§2) The inhibition activity of the compounds of the present invention on the adenosine A2a receptor cAMP signaling pathway, the adenosine A2b receptor cAMP signaling pathway, the adenosine A1 receptor cAMP signaling pathway and the adenosine A3 receptor cAMP signaling pathway was determined by the following method. The experimental method is briefly described as follows:
2.4 Adenosine A2b receptor (A2bR)
CHO-K1/A2bR cells were cultured in DMEM/F12 medium containing 10% fetal bovine serum and 1 mg/ml G418. The cells were digested with the cell separation buffer during the experiment. The cells were resuspended in the balanced salt buffer containing 20 mM HEPES and 0.1% bovine serum albumin and counted, and the cell density was adjusted to 10^6 cells/ml. In the 384-well plate, each well was added with 5 μl of cell suspension, and 2.5 μl of test compound (4× concentration) formulated with the balanced salt buffer containing 20 mM HEPES, 0.1% bovine serum albumin, 54 μM rolipram and 2.7 U/ml adenosine deaminase, and the plate was incubated at room temperature for 30 minutes. Each well was then added with 2.5 μl of […] (4× concentration) (Torcis, 1691/10) formulated with the balanced salt buffer containing 20 mM HEPES, 0.1% bovine serum albumin, 54 μM rolipram and 2.7 U/ml adenosine deaminase, and the plate was incubated at room temperature for 30 minutes. The final concentrations of the compounds were: 100000, 10000, 1000, 100, 10, 1, 0.1 and 0 nM. The final concentration of […] was 1 μM. Intracellular cAMP concentration was detected with the cAMP dynamic 2 kit. cAMP-d2 and Anti-cAMP-Eu-Cryptate were diluted respectively with the cAMP lysis buffer at a ratio of 1:4. Each well was added with 5 μl of diluted cAMP-d2, followed by addition of 5 μl of diluted Anti-cAMP-Eu-Cryptate, and the plate was incubated at room temperature in the dark for 1 hour. The HTRF signal values were read by the PHERAstar multi-function microplate reader.

[2] = molecular target: adenosine A2a receptor (A2aR) (Homo sapiens (Human), UniProt P29274); assay: Inhibition of adenosine A2a receptor cAMP signaling pathway (HTRF cAMP, CHO-K1/A2aR cells); format: cell-based
From the text: as §1, §2
2.1 Adenosine A2a Receptor
CHO-K1/A2aR cells were cultured in DMEM/F12 medium containing 10% fetal bovine serum and 800 μg/ml bleomycin. The cells were digested with the cell separation buffer during the experiment. The cells were resuspended in the balanced salt buffer containing 20 mM HEPES and 0.1% bovine serum albumin and counted, and the cell density was adjusted to 10^6 cells/ml. In the 384-well plate, each well was added with 5 μl of cell suspension, and 2.5 μl of test compound (4× concentration) formulated with the balanced salt buffer containing 20 mM HEPES, 0.1% bovine serum albumin, 54 μM rolipram and 2.7 U/ml adenosine deaminase, and the plate was incubated at room temperature for 30 minutes. Each well was then added with 2.5 μl of […] (4× concentration) formulated with the balanced salt buffer containing 20 mM HEPES, 0.1% bovine serum albumin, 54 μM rolipram and 2.7 U/ml adenosine deaminase, and the plate was incubated at room temperature for 30 minutes. The final concentrations of the compounds were: 10000, 2000, 400, 80, 16, 3.2, 0.64, 0.128, 0.0256, 0.00512, and 0.001024 nM. The final concentration of […] was 20 nM. Intracellular cAMP concentration was detected with the cAMP dynamic 2 kit. cAMP-d2 and Anti-cAMP-Eu-Cryptate were diluted respectively with the cAMP lysis buffer at a ratio of 1:4. Each well was added with 5 μl of diluted cAMP-d2, followed by addition of 5 μl of diluted Anti-cAMP-Eu-Cryptate, and the plate was incubated at room temperature in the dark for 1 hour. The HTRF signal values were read by the PHERAstar multi-function microplate reader.

Sequence of adenosine A2b receptor (A2bR) (P29275 whole entry): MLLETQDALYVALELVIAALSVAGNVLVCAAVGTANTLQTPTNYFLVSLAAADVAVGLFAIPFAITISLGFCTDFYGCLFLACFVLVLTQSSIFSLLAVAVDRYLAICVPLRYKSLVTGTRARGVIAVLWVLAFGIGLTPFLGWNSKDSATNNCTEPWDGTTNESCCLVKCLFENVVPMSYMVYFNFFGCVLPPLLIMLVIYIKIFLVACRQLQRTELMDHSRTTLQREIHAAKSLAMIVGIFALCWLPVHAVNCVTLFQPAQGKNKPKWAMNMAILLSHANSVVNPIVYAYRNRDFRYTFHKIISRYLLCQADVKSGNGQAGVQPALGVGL
Sequence of adenosine A2a receptor (A2aR) (P29274 whole entry): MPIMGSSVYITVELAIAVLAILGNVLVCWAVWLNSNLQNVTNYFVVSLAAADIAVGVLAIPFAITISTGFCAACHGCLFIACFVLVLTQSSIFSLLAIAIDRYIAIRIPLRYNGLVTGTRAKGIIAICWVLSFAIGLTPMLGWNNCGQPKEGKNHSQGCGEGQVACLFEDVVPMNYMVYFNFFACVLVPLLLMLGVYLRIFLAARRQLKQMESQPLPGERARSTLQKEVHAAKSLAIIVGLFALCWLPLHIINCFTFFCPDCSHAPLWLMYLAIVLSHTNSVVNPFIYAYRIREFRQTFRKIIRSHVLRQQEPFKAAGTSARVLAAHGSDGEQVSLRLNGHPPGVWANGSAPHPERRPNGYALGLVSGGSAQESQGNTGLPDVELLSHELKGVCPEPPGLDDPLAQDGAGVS

| Compound | IC50 [1] [nM] | IC50 ratio (A2bR/A2aR) [1] | IC50 ([2]; Table 1, ethyl carbazole 20 nM) [nM] | IC50 ([2]; Table 3, ethyl carbazole 20 nM) [nM] |
| --- | --- | --- | --- | --- |
| Cc1cc(-c2c(-c3ccccc3)nc(N)n3cnnc23)ccn1 [Example 12, 8-(2-Methylpyridin-4-yl)-7-phenyl-[1,2,4]triazolo[4,3-c]pyrimidin-5-amine] |  |  | 0.63 |  |
| Cc1cc(-c2c(-c3ccc(Cl)cc3)nc(N)n3cnnc23)cc(C(F)(F)F)n1 [Example 14, 7-(4-Chlorophenyl)-8-(2-methyl-6-(trifluoromethyl)pyridin-4-yl)-[1,2,4]triazolo[4,3-c]pyrimidin-5-amine] |  |  | 1.56 |  |
| Cc1cc(-c2c(-c3ccc(F)cc3)nc(N)n3cnnc23)cc(C(F)(F)F)n1 [Example 16, 7-(4-Fluorophenyl)-8-(2-methyl-6-(trifluoromethyl)pyridin-4-yl)-[1,2,4]triazolo[4,3-c]pyrimidin-5-amine] | 122 | 194 | 0.63 | 0.63 |
| Cc1cc(-c2c(-c3ccccc3)nc(N)n3ccnc23)cc(C(F)(F)F)n1 [Example 17, 8-(2-Methyl-6-(trifluoromethyl)pyridin-4-yl)-7-phenylimidazo[1,2-c]pyrimidin-5-amine] |  |  | 0.75 |  |
| Cc1cc(-c2c(-c3ccccc3)nc(N)n3cc(C)nc23)cc(C)n1 [Example 21, 8-(2,6-Dimethylpyridin-4-yl)-2-methyl-7-phenylimidazo[1,2-c]pyrimidin-5-amine] |  |  | 2.46 |  |
| Cc1cc(-c2c(-c3cccc(F)c3)nc(N)n3cnnc23)cc(C(F)(F)F)n1 [Example 29, 7-(3-Fluorophenyl)-8-(2-methyl-6-(trifluoromethyl)pyridin-4-yl)-[1,2,4]triazolo[4,3-c]pyrimidin-5-amine] | 86.3 | 157 | 0.55 | 0.55 |
| Cc1cc(-c2c(-c3ccccc3)nc(N)n3cnnc23)cc(C2CC2)n1 [Example 30, 8-(2-Cyclopropyl-6-methylpyridin-4-yl)-7-phenyl-[1,2,4]triazolo[4,3-c]pyrimidin-5-amine] | 70.9 | 92 | 0.77 | 0.77 |
| Cc1cc(-c2c(-c3ccccc3)nc(N)n3ccnc23)cc(C)n1 [Example 31, 8-(2,6-Dimethylpyridin-4-yl)-7-phenylimidazo[1,2-c]pyrimidin-5-amine] |  |  | 0.93 |  |
| Cc1cc(-c2c(-c3ccc(F)cc3)nc(N)n3ccnc23)cc(C)n1 [Example 32, 8-(2,6-Dimethylpyridin-4-yl)-7-(4-fluorophenyl)imidazo[1,2-c]pyrimidin-5-amine] |  |  | 1 |  |
| Cc1cc(-c2c(-c3ccc(Cl)cc3)nc(N)n3cnnc23)cc(Cl)n1 [Example 36, 8-(2-Chloro-6-methylpyridin-4-yl)-7-(4-chlorophenyl)-[1,2,4]triazolo[4,3-c]pyrimidin-5-amine] |  |  | 3.47 |  |
| Nc1nc(-c2ccccc2)c(-c2ccncc2)c2nncn12 [Example 37, 7-Phenyl-8-(pyridin-4-yl)-[1,2,4]triazolo[4,3-c]pyrimidin-5-amine] |  |  | 2.11 |  |
| Nc1nc(-c2ccccc2)c(-c2ccnc(Cl)c2)c2nncn12 [Example 38, 8-(2-Chloropyridin-4-yl)-7-phenyl-[1,2,4]triazolo[4,3-c]pyrimidin-5-amine] |  |  | 2.18 |  |
| Cc1cc(-c2c(-c3ccc(F)cc3F)nc(N)n3cnnc23)cc(C)n1 [Example 40, 7-(2,4-Difluorophenyl)-8-(2,6-dimethylpyridin-4-yl)-[1,2,4]triazolo[4,3-c]pyrimidin-5-amine] |  |  | 1.75 |  |
| Cc1cc(-c2c(-c3ccc(Cl)cc3)nc(N)n3cnnc23)cc(C)n1 [Example 54, 7-(4-Chlorophenyl)-8-(2,6-dimethylpyridin-4-yl)-[1,2,4]triazolo[4,3-c]pyrimidin-5-amine] |  |  | 0.48 |  |

Now those with a lower IC50 ([2]; Table 1, ethyl carbazole 20 nM), led by results:

| IC50 [1] [nM] | IC50 ratio (A2bR/A2aR) [1] | IC50 ([2]; Table 1, ethyl carbazole 20 nM) [nM] | IC50 ([2]; Table 3, ethyl carbazole 20 nM) [nM] | Compound |
| --- | --- | --- | --- | --- |
|  |  | 0.42 |  | CCc1cc(-c2c(-c3ccccc3)nc(N)n3cnnc23)cc(C)n1 [Example 26, 8-(2-Ethyl-6-methylpyridin-4-yl)-7-phenyl-[1,2,4]triazolo[4,3-c]pyrimidin-5-amine] |
|  |  | 0.35 |  | Cc1cc(-c2c(-c3ccc(Cl)cc3)nc(N)n3cnnc23)cc(CF)n1 [Example 53, 7-(4-Chlorophenyl)-8-(2-(fluoromethyl)-6-methylpyridin-4-yl)-[1,2,4]triazolo[4,3-c]pyrimidin-5-amine] |
|  |  | 0.32 |  | COc1cc(-c2c(-c3ccccc3)nc(N)n3cnnc23)cc(C)n1 [Example 25, 8-(2-Methoxy-6-methylpyridin-4-yl)-7-phenyl-[1,2,4]triazolo[4,3-c]pyrimidin-5-amine] |
|  |  | 0.27 |  | Cc1cc(-c2c(-c3ccccc3)nc(N)n3ccnc23)cc(Cl)n1 [Example 24, 8-(2-Chloro-6-methylpyridin-4-yl)-7-phenylimidazo[1,2-c]pyrimidin-5-amine] |
| 91 | 350 | 0.26 | 0.26 | Nc1nc(-c2ccccc2)c(-c2ccc3[nH]ncc3c2)c2nncn12 [Example 10, 8-(1H-indazol-5-yl)-7-phenyl-[1,2,4]triazolo[4,3-c]pyrimidin-5-amine] |
|  |  | 0.25 |  | Nc1nc(-c2ccccc2)c(-c2cc(C(F)(F)F)c3[nH]ncc3c2)c2nncn12 [Example 9, 7-Phenyl-8-(7-(trifluoromethyl)-1H-indazol-5-yl)-[1,2,4]triazolo[4,3-c]pyrimidin-5-amine] |
| 58.5 | 254 | 0.23 | 0.23 | Cc1cc(-c2c(-c3ccccc3)nc(N)n3cnnc23)cc(C(F)(F)F)n1 [Example 1, 8-(2-Methyl-6-(trifluoromethyl)pyridin-4-yl)-7-phenyl-[1,2,4]triazolo[4,3-c]pyrimidin-5-amine] |
|  |  | 0.23 |  | Nc1nc(-c2ccccc2)c(-c2cc(Cl)nc(C(F)(F)F)c2)c2nncn12 [Example 23, 8-(2-Chloro-6-(trifluoromethyl)pyridin-4-yl)-7-phenyl-[1,2,4]triazolo[4,3-c]pyrimidin-5-amine] |
|  |  | 0.2 |  | CC(C)n1cc(-c2c(-c3ccccc3)nc(N)n3cnnc23)ccc1=O [Example 43, 5-(5-Amino-7-phenyl-[1,2,4]triazolo[4,3-c]pyrimidin-8-yl)-1-isopropylpyridin-2(1H)-one] |
| 203 | 1125 | 0.18 | 0.18 | Cc1cc(-c2c(-c3ccc(C)o3)nc(N)n3cnnc23)cc(C(F)(F)F)n1 [Example 8, 8-(2-Methyl-6-(trifluoromethyl)pyridin-4-yl)-7-(5-methylfuran-2-yl)-[1,2,4]triazolo[4,3-c]pyrimidin-5-amine] |
|  |  | 0.18 |  | Cc1ccc(-c2nc(N)n3cnnc3c2-c2cc(C)nc(Cl)c2)cc1 [Example 35, 8-(2-Chloro-6-methylpyridin-4-yl)-7-(p-tolyl)-[1,2,4]triazolo[4,3-c]pyrimidin-5-amine] |
| 98.9 | 582 | 0.17 | 0.17 | Cc1cc(-c2c(-c3ccc(F)cc3)nc(N)n3cnnc23)cc(Cl)n1 [Example 15, 8-(2-Chloro-6-methylpyridin-4-yl)-7-(4-fluorophenyl)-[1,2,4]triazolo[4,3-c]pyrimidin-5-amine] |
|  |  | 0.14 |  | Nc1nc(-c2ccccc2)c(-c2cc(F)c3[nH]ncc3c2)c2nncn12 [Example 6, 8-(7-Fluoro-1H-indazol-5-yl)-7-phenyl-[1,2,4]triazolo[4,3-c]pyrimidin-5-amine] |
